B1: 5'-FAM c-Fos 11-mer ARE RNA (ssRNA)
RNA: AUUUUUAUUUU
B2: unlabeled c-Fos 11-mer ARE RNA (ssRNA)
RNA: AUUUUUAUUUU

molecular target: T1, HuR (Homo sapiens, UniProt Q15717); assay: Fluorescence polarization (FP) competition / dose-response assay of HuR/RNA interaction; type: binding; settings: 10nM RNA and 50nM HuR, compounds serially diluted from 250uM
T1 construct: Full length (residue 1–326), RRM1-2 (residue 1–190); inferred from pET14b vector and metal chelation chromatography) (N); made in house; host or cells: E. coli BL21 Rosetta
Protocol: Fluorescence polarization measurements were performed in the 384-well plate format on a Biotek Synergy2 plate reader using 480/20nm excitation and 520/20nm emission filters. The NCI diversity set V library containing 1597 compounds was screened in this study. All samples were dissolved in phosphate buffer (50mM Napi, and 100mM NaCl, 5mM TCEP at pH 7.0). The assay mixture contained 50nM HuR and 10nM RNA to yield FP values approximately 80% of the maximum value observed for fully bound RNA. NCI diversity set V library in 96-well format (10mM stock in DMSO) was transferred to 384-well plate, and then diluted into 50uM in phosphate buffer. 5ul of 50uM compound stock was added to 20 ul assay mixture to yield 10uM final compound concentration.
We first characterized the binding of the full-length HuR with 11-mer polyribonucleotide derived from the 3’ UTR of the mRNA of the C-fos oncogene (Fig 1A). The binding curves were obtained by keeping the 5’FAM-RNA at 10 nM and adding increasing amounts of HuR. The apparent dissociation constant for the HuR/RNA binding was estimated to be approximately 20 nM (Fig 1A) using the simplified equation as described. To evaluate the expected effect of the inhibitors on the FP readout of the essay, we measured displacement of the fluorescently labeled RNA by the unlabeled RNA (Fig 1B). In displacement assay, the 10nM of 5’FAM-RNA concentration was mixed with 50nM at which fluorescence polarization value was approximately 80% of the maximal value. Fluorescence polarization was measured as a function of the unlabeled RNA concentration. IC50 was obtained (~40nM) by fitting to the equation specified in the figure legend (Fig 1B)
Supplementary file pone.0138780.s002.tif: S2 Fig Dose responses of hits on confirmed hits from primary screening. Compounds at 250uM in final concentration in the assay volume of 25uL were added to the mixture of 10nM RNA and 50nM HuR in the first well in 384 format plate followed by a serial dilution into next well where the concentration of RNA and HuR was kept constant. (TIF) Click here for additional data file.
Supplementary file pone.0138780.s010.doc: S1 Table IC50 for confirmed hits from primary HTS screening. IC50s were obtained by fitting to the equation of ΔP = ΔPmax/(1+10^((Logx0-X)*p)). (DOC) Click here for additional data file.

T1 sequence (Q15717 whole entry): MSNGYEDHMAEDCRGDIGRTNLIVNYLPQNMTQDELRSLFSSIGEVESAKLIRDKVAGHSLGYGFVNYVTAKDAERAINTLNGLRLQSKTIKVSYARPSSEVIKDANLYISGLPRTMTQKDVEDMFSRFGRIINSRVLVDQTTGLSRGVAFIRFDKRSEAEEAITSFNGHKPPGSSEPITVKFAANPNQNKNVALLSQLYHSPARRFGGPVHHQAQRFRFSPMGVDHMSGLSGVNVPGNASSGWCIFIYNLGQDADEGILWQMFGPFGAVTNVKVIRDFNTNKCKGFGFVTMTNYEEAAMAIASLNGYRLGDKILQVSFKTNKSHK

IC50 | Molecule
17.4 µM | COCC(=O)OC1CCn2c1nc1c2C(=O)C(C)=C(NC(C)=O)C1=O (stereo not drawn) [C12]
69.6 µM | COC(=O)CC1OCC=C2CN3CCC45C6=CC(=O)C(=O)C([N+](=O)[O-])=C6NC4C1C2CC35 (stereo not drawn) [C9]
97.4 µM | O=C(Nc1cccc([N+](=O)[O-])c1)c1ccc2ccccc2c1O [C4]
44.4 µM | CC#CC#Cc1cccc(=O)o1 [C8]
16.7 µM | O=C(O)C1=NN(c2cc(Cl)c(S(=O)(=O)O)cc2Cl)C(=O)C1 [C5]
41 µM | Cc1ccc(Nc2ccc(N)cc2S(=O)(=O)O)cc1 [C2]
26.9 µM | O=C(O)c1cc(N2C(=O)C=CC2=O)cc(N2C(=O)C=CC2=O)c1 [C3]
4.6 µM | CCOC(=O)C(=O)Cc1cccnn1 [C7]

Molecule | IC50
CSc1nc(N)c(N=Nc2ccc([As](=O)(O)O)cc2)c(=O)[nH]1 [C6] | 2.7 µM
CO[C@@H]1[C@@H](OC(=O)c2ccc(C)[nH]2)[C@@H](O)[C@H](Oc2ccc3c(O)c(NC(=O)c4ccc(O)c(CC=C(C)C)c4)c(=O)oc3c2Cl)OC1(C)C [C11] | 41.9 µM
COc1cccc2c1C(=O)c1c(O)c3c(c(O)c1C2=O)CC(O)(/C(C)=N/O)CC3OC1CC(N)C(O)C(C)O1 (stereo not drawn) [C10] | 21.7 µM

molecular target: T2, Full length HuR (Homo sapiens, UniProt Q15717); assay: Sedimentation velocity analytical ultracentrifugation (AUC) of HuR dimer/oligomer; type: biochemical; settings: 10uM HuR and 20uM compounds
T2 construct: Full length (residue 1–326), RRM1-2 (residue 1–190); inferred from pET14b vector and metal chelation chromatography) (N); made in house; host or cells: E. coli BL21 Rosetta
Protocol: Sedimentation velocity analytical ultracentrifugation was performed on a Beckman XLA analytical ultracentrifuge using an AN50 Ti rotor with standard Epon 2-channel centerpieces. The samples were spun at 25000rpm for~12hrs at 20 C. 25 scans measuring absorbance at 280nm were collected. The data were analyzed using Ultrascan III software.
Supplementary file pone.0138780.s005.tif: S5 Fig Post-hit validation using analytical ultracentrifugation (AUC). Sedimentation velocity studies are informative of the overall shape of molecule. […] We tested 4 compounds from secondary screening. 30% and 50% fraction of boundary were in orange. […] (TIF) Click here for additional data file.

T2 sequence (Q15717 whole entry): as above

effect on formation of HuR dimer/oligomer (shift of boundary toward monomer) | Molecule
did not | CC#CC#Cc1cccc(=O)o1 [C8]
did not | Cc1ccc(Nc2ccc(N)cc2S(=O)(=O)O)cc1 [C2]

molecular target: T3, HuR full length (UniProt Q15717 1-326); assay: fluorescence polarization; 10 nM RNA; apparent Kd; FP: 50 mM Na phosphate, 100 mM NaCl, 5 mM TCEP, pH 7.0, 384-well plate; temperature not stated; NMR conditions not in material; settings: protein: recombinant; (pET14b, metal chelation); label: 5'-FAM; single strand
T3 sequence (Q15717 whole entry): as above

Molecule | Kd
B1 | ~0.02 µM

molecular target: T3, HuR full length; assay: competition (fluorescence polarization); displacement of 10 nM 5'-FAM RNA (N1) from 50 nM HuR; FP: 50 mM Na phosphate, 100 mM NaCl, 5 mM TCEP, pH 7.0, 384-well plate; temperature not stated; NMR conditions not in material; settings: protein: recombinant; (pET14b, metal chelation); single strand

Molecule | IC50
B2 | ~0.04 µM

Source: paper PMC4577092, “Identification of Small-Molecule Inhibitors of the HuR/RNA Interaction Using a Fluorescence Polarization Screening Assay Followed by NMR Validation” (PLoS ONE, 2015)
